Source: ChEMBL document CHEMBL3885861, “Open TG-GATES”

Species: Rattus norvegicus
Experiment: Open TG-GATES - Regimen: Single
Type: toxicity, organism-based, Sprague-Dawley
Set-up: regimen Single, gender Male, age 6 weeks
Settings: in vivo, ip, 40 mg/kg, route intraperitoneal injection, dose level Low; for APTT / Bas / Eos / Fbg / Hb / Ht / Lym / MCH / MCHC / MCV / Mono / Neu / PT / Plat / RBC / Ret / WBC: tissue Blood; for KIDNEY_L / KIDNEY_R / KIDNEY_TOTAL: tissue Kidney; for LIVER: tissue Liver; for A/G / ALP / ALT / AST / BUN / CRE / Ca / Cl / DBIL / GLC / IP / K / LDH / Na / PL / RALB / TBIL / TC / TG / TP / gamma-GTP: tissue Plasma

Question: What does the source list for CC(C)=CC(=O)C=C(C)C [PHORONE]?
Answer: TERMINAL_BW (3 h): 219.9 g; APTT (3 h): 16.7 s; Bas (3 h): 0%; Eos (3 h): 0.8%; Fbg (3 h): 211 mg/dL; Hb (3 h): 13.1 g/dL; Ht (3 h): 39.1%; Lym (3 h): 69.8%; MCH (3 h): 21.6 pg; MCHC (3 h): 33.5%; MCV (3 h): 64.4 fL; Mono (3 h): 8.4%; Neu (3 h): 21.2%; PT (3 h): 12.2 s; Plat (3 h): 112.1 x10_4/uL; RBC (3 h): 608 x10_4/ul; Ret (3 h): 9.2%; WBC (3 h): 105.8 x10_2/uL; KIDNEY_L (3 h): 1 g; KIDNEY_R (3 h): 1 g; KIDNEY_TOTAL (3 h): 2 g; LIVER (3 h): 10.5 g; A/G (3 h): 2.3; ALP (3 h): 735.6 IU/L; ALT (3 h): 36.4 IU/L; AST (3 h): 78.6 IU/L; BUN (3 h): 14.8 mg/dL; CRE (3 h): 0.6 mg/dL; Ca (3 h): 10.6 mg/dL; Cl (3 h): 106 meq/L; DBIL (3 h): 0.034 mg/dL; GLC (3 h): 193.6 mg/dL; IP (3 h): 10.3 mg/dL; K (3 h): 4.8 meq/L; LDH (3 h): 83.8 IU/L; Na (3 h): 139 meq/L; PL (3 h): 133.6 mg/dL; RALB (3 h): 3.6 g/dL; TBIL (3 h): 0.4 mg/dL; TC (3 h): 75.4 mg/dL; TG (3 h): 46 mg/dL; TP (3 h): 5.2 g/dL; gamma-GTP (3 h): 2.4 IU/L; TERMINAL_BW (6 h): 219.1 g; APTT (6 h): 17.2 s; Bas (6 h): 0%; Eos (6 h): 0.6%; Fbg (6 h): 216.8 mg/dL; Hb (6 h): 13.5 g/dL; Ht (6 h): 40.3%; Lym (6 h): 66.2%; MCH (6 h): 21.6 pg; MCHC (6 h): 33.4%; MCV (6 h): 64.8 fL; Mono (6 h): 6.6%; Neu (6 h): 26.8%; PT (6 h): 12.3 s; Plat (6 h): 114.9 x10_4/uL; RBC (6 h): 621.6 x10_4/ul; Ret (6 h): 9%; WBC (6 h): 90 x10_2/uL; KIDNEY_L (6 h): 1 g; KIDNEY_R (6 h): 1 g; KIDNEY_TOTAL (6 h): 2.1 g; LIVER (6 h): 9.8 g; A/G (6 h): 2.2; ALP (6 h): 814.6 IU/L; ALT (6 h): 36.2 IU/L; AST (6 h): 70.8 IU/L; BUN (6 h): 13.8 mg/dL; CRE (6 h): 0.5 mg/dL; Ca (6 h): 10.8 mg/dL; Cl (6 h): 105 meq/L; DBIL (6 h): 0.048 mg/dL; GLC (6 h): 193.4 mg/dL; IP (6 h): 10.1 mg/dL; K (6 h): 4.9 meq/L; LDH (6 h): 76 IU/L; Na (6 h): 138.2 meq/L; PL (6 h): 126.4 mg/dL; RALB (6 h): 3.6 g/dL; TBIL (6 h): 0.5 mg/dL; TC (6 h): 72.2 mg/dL; TG (6 h): 36.6 mg/dL; TP (6 h): 5.3 g/dL; gamma-GTP (6 h): 1.6 IU/L; TERMINAL_BW (9 h): 220.4 g; APTT (9 h): 17.1 s; Bas (9 h): 0%; Eos (9 h): 1%; Fbg (9 h): 246.6 mg/dL; Hb (9 h): 13.2 g/dL; Ht (9 h): 39.8%; Lym (9 h): 63.8%; MCH (9 h): 21.8 pg; MCHC (9 h): 33.3%; MCV (9 h): 65.5 fL; Mono (9 h): 8.6%; Neu (9 h): 26.6%; PT (9 h): 12.1 s; Plat (9 h): 115.4 x10_4/uL; RBC (9 h): 609 x10_4/ul; Ret (9 h): 9.4%; WBC (9 h): 96.2 x10_2/uL; KIDNEY_L (9 h): 1 g; KIDNEY_R (9 h): 1 g; KIDNEY_TOTAL (9 h): 2 g; LIVER (9 h): 9.5 g; A/G (9 h): 2; ALP (9 h): 839.8 IU/L; ALT (9 h): 33.2 IU/L; AST (9 h): 69 IU/L; BUN (9 h): 13.8 mg/dL; CRE (9 h): 0.5 mg/dL; Ca (9 h): 10.8 mg/dL; Cl (9 h): 106.6 meq/L; DBIL (9 h): 0.04 mg/dL; GLC (9 h): 204.2 mg/dL; IP (9 h): 10 mg/dL; K (9 h): 4.7 meq/L; LDH (9 h): 91.4 IU/L; Na (9 h): 138.8 meq/L; PL (9 h): 131.8 mg/dL; RALB (9 h): 3.6 g/dL; TBIL (9 h): 0.4 mg/dL; TC (9 h): 77.6 mg/dL; TG (9 h): 54 mg/dL; TP (9 h): 5.4 g/dL; gamma-GTP (9 h): 1.8 IU/L; TERMINAL_BW (24 h): 231.5 g; APTT (24 h): 16.9 s; Bas (24 h): 0%; Eos (24 h): 0.8%; Fbg (24 h): 231.2 mg/dL; Hb (24 h): 12.9 g/dL; Ht (24 h): 38.5%; Lym (24 h): 77.8%; MCH (24 h): 22 pg; MCHC (24 h): 33.6%; MCV (24 h): 65.4 fL; Mono (24 h): 5.6%; Neu (24 h): 16%; PT (24 h): 11.5 s; Plat (24 h): 113 x10_4/uL; RBC (24 h): 589.8 x10_4/ul; Ret (24 h): 8.8%; WBC (24 h): 87.7 x10_2/uL; KIDNEY_L (24 h): 1 g; KIDNEY_R (24 h): 1 g; KIDNEY_TOTAL (24 h): 2 g; LIVER (24 h): 11.8 g; A/G (24 h): 2; ALP (24 h): 774.8 IU/L; ALT (24 h): 34 IU/L; AST (24 h): 65 IU/L; BUN (24 h): 19.2 mg/dL; CRE (24 h): 0.5 mg/dL; Ca (24 h): 11 mg/dL; Cl (24 h): 104.4 meq/L; DBIL (24 h): 0.028 mg/dL; GLC (24 h): 197.2 mg/dL; IP (24 h): 8.3 mg/dL; K (24 h): 4.7 meq/L; LDH (24 h): 87.6 IU/L; Na (24 h): 139 meq/L; PL (24 h): 156 mg/dL; RALB (24 h): 3.8 g/dL; TBIL (24 h): 0.4 mg/dL; TC (24 h): 81.8 mg/dL; TG (24 h): 118.2 mg/dL; TP (24 h): 5.7 g/dL; gamma-GTP (24 h): 0.6 IU/L
